Data as given in PubChem BioAssay (NCI).
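48-hour exposure; five concentrations; linearly interpolated endpoints. TGI denotes the concentration required for complete inhibition of growth.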

Legend:
Assay in all cases: NCI tumour cell line growth inhibition, 48 h
[1] = system: CCRF-CEM leukemia
[2] = system: HL-60(TB) leukemia
[3] = system: MALME-3M melanoma
[4] = system: SW-620 colon
[5] = system: OVCAR-3 ovarian
[6] = system: NCI-H23 lung
[7] = system: SF-539 CNS
[8] = system: SF-295 CNS
[9] = system: KM12 colon
[10] = system: NCI-H226 lung
[11] = system: SNB-75 CNS
[12] = system: MDA-MB-435
[13] = system: HOP-62 NSCLC
[14] = system: MDA-MB-231 breast
[15] = system: LOX IMVI melanoma
[16] = system: U251 CNS
[17] = system: M14 melanoma
[18] = system: UACC-62 melanoma
[19] = system: IGROV1 ovarian
[20] = system: PC-3 prostate
[21] = system: NCI-H460 lung
[22] = system: OVCAR-4 ovarian
[23] = system: OVCAR-5 ovarian
[24] = system: RPMI-8226 leukemia
[25] = system: 786-0 renal
[26] = system: SNB-19 CNS
[27] = system: DU-145 prostate
[28] = system: MCF7 breast
[29] = system: SK-MEL-2 melanoma
[30] = system: RXF 393 renal
[31] = system: T-47D breast
[32] = system: SK-OV-3 ovarian
[33] = system: A498 renal
[34] = system: MDA-N
[35] = system: SF-268 CNS
[36] = system: OVCAR-8 ovarian
[37] = system: HOP-92 NSCLC
[38] = system: BT-549 breast
[39] = system: SN12C renal
[40] = system: SK-MEL-28 melanoma
[41] = system: UO-31 renal
[42] = system: HCT-116 colon
[43] = system: SK-MEL-5 melanoma
[44] = system: TK-10 renal
[45] = system: HCC-2998 colon
[46] = system: ACHN renal
[47] = system: COLO 205 colon
[48] = system: UACC-257 melanoma
[49] = system: HS 578T breast
[50] = system: HCT-15 colon
[51] = system: HT29 colon
[52] = system: CAKI-1 renal
[53] = system: A549 NSCLC
[54] = system: NCI/ADR-RES ovarian
[55] = system: NCI-H522 lung
[56] = system: EKVX NSCLC
[57] = system: MOLT-4 leukemia
[58] = system: SR leukemia
[59] = system: K-562 leukemia

Measured: TGI

CC(C)C(Cl)CCC(C)(Cl)C(=O)CBr (centres undefined)
29.8 µM: [9]
16.4 µM: [5]
14 µM: [12]
23 µM: [3]
10.2 µM: [18]
11.6 µM: [51]
19.3 µM: [46]
56 µM: [35]
41.2 µM: [8]
23.8 µM: [37]
33.4 µM: [21]
25.8 µM: [16]
> 67.3 µM: [26]
6.27 µM: [31]
7.79 µM: [30]
19.6 µM: [13]
29.4 µM: [39]
14.3 µM: [43] | [52]
36.7 µM: [27]
44.5 µM: [10]
32.8 µM: [56]
23.6 µM: [54]
21.5 µM: [14]
33.1 µM: [45]
15 µM: [41]
21.8 µM: [6]
2.52 µM: [24]
21.9 µM: [29]
9.06 µM: [42]
3.34 µM: [55]
16.3 µM: [40]
23.1 µM: [49]
8.02 µM: [25]
16.6 µM: [48]
32.1 µM: [7]
10.6 µM: [50]
13.7 µM: [44]
53.4 µM: [53]
4.53 µM: [28]
32.3 µM: [11]
5.65 µM: [4]
12.7 µM: [22]
26.7 µM: [23]
12 µM: [47]
11.3 µM: [17]
16.9 µM: [19]
30.3 µM: [33]
7.25 µM: [34]
> 100 µM: [1] | [2] | [36]
23.2 µM: [20]
2.36 µM: [15]
22.6 µM: [38]
39.1 µM: [32]

COC(=O)c1cc(S(=O)(=O)NC2=NCC(C)NN2)c(S)cc1Cl (centres undefined)
47.5 µM: [55]
82.3 µM: [43]
> 100 µM: [1] | [2] | [4] | [5] | [6] | [7] | [8] | [9] | [12] | [13] | [14] | [15] | [57] | [16] | [58] | [59] | [17] | [18] | [19] | [20] | [21] | [22] | [23] | [24] | [25] | [26] | [27] | [28] | [32] | [34] | [36] | [38] | [39] | [40] | [41] | [42] | [44] | [45] | [46] | [47] | [48] | [50] | [51] | [52] | [53] | [54] | [56]
60.6 µM: [35]
84.5 µM: [29]
75.3 µM: [11]
72.8 µM: [33]
97.5 µM: [3]

Cc1ccc(S(=O)(=O)OC2CC(C(C)(C)C)CCC2c2ccccc2)cc1 (centres undefined)
68 µM: [11]
> 100 µM: [2] | [4] | [5] | [6] | [7] | [8] | [9] | [10] | [12] | [13] | [14] | [15] | [57] | [16] | [58] | [59] | [17] | [18] | [19] | [20] | [21] | [22] | [23] | [24] | [25] | [26] | [27] | [28] | [29] | [30] | [31] | [32] | [33] | [34] | [36] | [37] | [38] | [39] | [40] | [41] | [42] | [43] | [44] | [46] | [47] | [48] | [50] | [51] | [52] | [53] | [54] | [56]

COc1ccc(-c2oc3cc(-c4cc5oc(-c6ccc(OC)cc6)c(-c6ccc(OC)cc6)c5cc4OC)c(OC)cc3c2-c2ccc(OC)cc2)cc1
> 100 µM: [1] | [3] | [4] | [5] | [6] | [7] | [8] | [9] | [10] | [11] | [12] | [13] | [14] | [15] | [57] | [16] | [58] | [59] | [17] | [18] | [19] | [20] | [21] | [22] | [23] | [24] | [25] | [26] | [27] | [28] | [30] | [32] | [33] | [34] | [35] | [36] | [37] | [38] | [39] | [40] | [41] | [42] | [43] | [44] | [45] | [46] | [47] | [48] | [49] | [50] | [51] | [52] | [53] | [54] | [55] | [56]
